Laboratory results from ChEMBL document CHEMBL1146588, “Ancistrotanzanine A, the first 5,3'-coupled naphthylisoquinoline alkaloid, and two further, 5,8'-linked related compounds from the newly described species Ancistrocladus tanzaniensis” (J Nat Prod, 2003).
In brackets after ≈: the same amount, converted by molar mass.

Experiments:
[1] = tested on: Trypanosoma brucei rhodesiense; assay: Antitrypanosomal activity against Trypanosoma brucei rhodesiense; format: functional, organism-based
Trypanosoma cruzi = assay: Antitrypanosomal activity against Trypanosoma cruzi; format: functional, organism-based
[2] = Cytotoxicity against rat L6 cells; format: cell-based; details: read-out: MIC
Plasmodium falciparum [3] = assay: Antimalarial activity against Plasmodium falciparum K1; format: functional, organism-based
Leishmania donovani = assay: Antileishmanial activity against Leishmania donovani; format: functional, organism-based
Plasmodium falciparum [4] = assay: Antimalarial activity against Plasmodium falciparum 3D7; format: functional, organism-based

SMILES: Nc1nc(N)nc(Nc2ccc([As]3SCC(CO)S3)cc2)n1 (stereo not given) [MELARSOPROL]
- IC50 [1]: 0.001 µg/mL

SMILES: O=C(Cn1ccnc1[N+](=O)[O-])NCc1ccccc1 [BENZNIDAZOLE]
- IC50 (Trypanosoma cruzi): 0.42 µg/mL (≈ 1.61 µM)

SMILES: COc1cc(OC)c(-c2ccc(OC)c3c(OC)cc(C)cc23)c2c1C(C)=N[C@@H](C)C2 [ANCISTROEALAINE A]
- IC50 [1]: 0.7 µg/mL (≈ 1.67 µM)
- MCC [2]: 8.1 µg/mL
- IC50 (Trypanosoma cruzi): 1.5 µg/mL (≈ 3.58 µM)
- IC50 (Plasmodium falciparum [3]): 0.3 µg/mL (≈ 0.715 µM)
- IC50 (Leishmania donovani): 1.6 µg/mL (≈ 3.81 µM)
- IC50 (Plasmodium falciparum [4]): 5 µg/mL (≈ 11.9 µM)

SMILES: CCCCCCCCCCCCCCCCOP(=O)([O-])OCC[N+](C)(C)C [MILTEFOSINE]
- IC50 (Leishmania donovani): 0.305 µg/mL (≈ 0.748 µM)

SMILES: COc1cc(OC)c2c(c1-c1ccc(OC)c3c(OC)cc(C)cc13)C[C@H](C)N[C@H]2C [ANCISTROTECTORILINE A]
- IC50 [1]: 2.1 µg/mL (≈ 4.98 µM)
- MCC [2]: 6.5 µg/mL
- IC50 (Trypanosoma cruzi): 17.8 µg/mL (≈ 42.2 µM)
- IC50 (Plasmodium falciparum [3]): 0.5 µg/mL (≈ 1.19 µM)
- IC50 (Leishmania donovani): > 10 µg/mL
- IC50 (Plasmodium falciparum [4]): 14 µg/mL (≈ 33.2 µM)

SMILES: COc1cc(OC)c(-c2c(C)cc3cccc(OC)c3c2O)c2c1C(C)=N[C@@H](C)C2 [ANCISTROTANZANINE A]
- IC50 [1]: 0.7 µg/mL (≈ 1.73 µM)
- MCC [2]: 6.4 µg/mL
- IC50 (Trypanosoma cruzi): 1.7 µg/mL (≈ 4.19 µM)
- IC50 (Plasmodium falciparum [3]): 0.3 µg/mL (≈ 0.74 µM)
- IC50 (Leishmania donovani): 1.8 µg/mL (≈ 4.44 µM)
